For this test, the system named is HBV viral production from HepAD38 cells. The test can be described thus: Activity of test compounds on viral production from HepAD38 cells (viral load by qPCR of HBV core sequence in supernatant). The following applies: Hepatitis B virus, 120 h, 5 days incubation, HBV DNA in supernatant by qPCR, top concentration 10 μM, read-out: Viral Load EC50 Activity range. The class given is cell-based. How it is done:
Assay Measuring Activity of Test Compounds on Viral Production from HepAD38 Cells
HepAD38 cells grown in a T-150 flask (Corning, cat #: 430825) with Growth Medium (DMEM/F12 (1:1) (Hyclone, cat #: SH30023.02), 1×Pen/Strep (Invitrogen, cat #: 15140-122), 10% FBS (Tissue Culture Biologics, cat #: 101), 250 μg/mL G418 (Alfa Aesar, cat #: J62671), 1 μg/mL Tetracycline (Teknova, cat #: T3320)) were detached with 0.25% trypsin-EDTA (Invitrogen, cat #: 25200-056). Tetracycline-free treatment medium (15 mL DMEM/F12 (1:1) 1× Pen/step, with 2% FBS, Tet-system approved (Clontech, cat #: 631106) were then added to mix, transferred into a 50 ml conical tube (Falcon, cat #: 21008-918) and spun at 1300 rpm for 5 min. Pelleted cells were then re-suspended/washed with 50 mL of 1×DPBS (Invitrogen, cat #: 14190-136) 2 times and 50 mL treatment medium twice. HepAD38 cells were then re-suspended with 10 mL of treatment medium, syringed and counted. Wells of 96-well clear bottom TC plate (Corning, cat #: 3904) were seeded at 50,000 cells/well in 180 μL of treatment medium, and 20 μL of either 10% DMSO (Sigma, cat #: D4540) as controls or a 10× solution of test compounds in 10% DMSO in treatment media was added for a final compound concentration starting at 10 μM, and plates were incubated in 5% CO2 incubator at 37° C. for 5 days.
Subsequently viral load production was assayed by quantitative PCR (qPCR) of the HBV core sequence. PCR reaction mixture containing forward primers HBV-f 5′-CTGTGCCTTGGGTGGCTTT-3′, which is SEQ ID NO 1, (IDT DNA), Reverse primers HBV-r 5′-[…]-3′, which is SEQ ID NO 2 (IDT DNA), Fluorescent TaqMan™ Probes HBV-probe 5′-FAM/AGCTCCAAA/ZEN/[…]/3IABkFQ-3′ (IDT DNA), which is SEQ ID NO 3, 10 μL/well of PerfeCTa® qPCR ToughMix® (Quanta Biosciences, Cat #: 95114-05K), and 6 µL/well of DEPC water (Alfa Aesar, cat #: J62087) was prepared. Four μL of supernatant was added to 16 μL of the reaction mixture in a qPCR plate (Applied Biosytems, Cat #: 4309849), sealed with a film (Applied Biosystems, Cat #: 4311971), centrifuged for a few seconds, and subsequently run on an Applied Biosystems VIIA7. The PCR mixture was incubated at 45° C. for 5 min, then 95° C. for 10 min, followed by 40 cycles of 10 seconds at 95° C. and 20 seconds at 60° C. Viral load was quantified against known HBV DNA standards by using ViiA™ 7 Software. Viral load in the supernatant from wells with treated cells were compared against viral load in supernatant from DMSO control wells (≥3 per plate). Cell viability assay was performed with CellTiter-Glo Luminescent Cell Viability Assay (Promega, cat #: G7573) with modification. Mixed appropriate amount of CellTiter-Glo (CTG) 1×DPBS in a 1:1 ratio, added 100 uL of the mixture to each well followed completely removal of all supernatant in each well without touching cell surface. Incubated the plate at room temperature for 10 min on an orbital shaker, and then read the plate with a plate reader (TECAN M1000 or Envision). EC50 or CC50 values were calculated through curve-fitting of the four-parameter nonlinear-logistic-regression model (GraphPad Prism or Dotmatics). CC50 values were all >10 μM.
One may read the EC50 as the midpoint of the concentration-response curve. In the case of `CN(C)CCCOc1ccc(C2CC(C(=O)Nc3ccc(F)c(Cl)c3)N(C)S(=O)(=O)N2)cc1` (racemic) [HBV-CSU-208, Cis-N-(3-chloro-4-fluorophenyl)-5-(4-(3-(dimethylamino)propoxy)phenyl)-2-methyl-1,2,6-thiadiazinane-3-carboxamide 1,1-dioxide], the EC50 was < 1 µM.

As to `[2H]C([2H])([2H])N1[C@H](C(=O)Nc2ccc(F)c(Cl)c2)C[C@H](c2ncc(Br)s2)NS1(=O)=O` [HBV-CSU-336-ISO-I, 5-(5-Bromothiazol-2-yl)-N-(3-chloro-4-fluorophenyl)-2-(methyl-d3)-1,2,6-thiadiazinane-3-carboxamide 1,1-dioxide], the EC50 is < 1 µM. For `CN1[C@H](C(=O)Nc2ccc(F)c(Cl)c2)C[C@H](c2ncc(Br)s2)NS1(=O)=O` [HBV-CSU-122-ISO-I, (3S,5R)-5-(5-bromothiazol-2-yl)-N-(3-chloro-4-fluorophenyl)-2-methyl-1,2,6-thiadiazinane-3-carboxamide 1,1-dioxide] the value was < 1 µM; for `CN1[C@@H](C(=O)Nc2ccc(F)c(Cl)c2)C[C@@H](c2ccc(-c3c[nH]cn3)s2)NS1(=O)=O` [HBV-CSU-331-ISO-II, Cis-5-(5-(1H-imidazol-4-yl)thiophen-2-yl)-N-(3-chloro-4-fluorophenyl)-2-methyl-1,2,6-thiadiazinane-3-carboxamide 1,1-dioxide], 1 to 5 µM. Consider `CCn1cc(-c2csc([C@H]3C[C@@H](C(=O)Nc4ccc(F)c(Cl)c4)N(C)S(=O)(=O)N3)c2)cn1` [HBV-CSU-294-ISO-I, Cis-N-(3-chloro-4-fluorophenyl)-5-(4-(1-ethyl-1H-pyrazol-4-yl)thiophen-2-yl)-2-methyl-1,2,6-thiadiazinane-3-carboxamide 1,1-dioxide], for which the EC50 is < 1 µM. As to `COCCN1[C@@H](C(=O)Nc2ccc(F)c(Br)c2)C[C@@H](c2nccs2)NS1(=O)=O` [HBV-CSU-059-ISO-I, Cis-N-(3-bromo-4-fluorophenyl)-2-(2-methoxyethyl)-5-(thiazol-2-yl)-1,2,6-thiadiazinane-3-carboxamide 1,1-dioxide], the EC50 is > 5 µM.

`CN1[C@H](C(=O)Nc2ccc(F)c(Cl)c2)C[C@H](c2ccc(-c3cnn(C)c3)cc2)NS1(=O)=O` [HBV-CSU-246-ISO-II, Cis-N-(3-Chloro-4-fluorophenyl)-2-methyl-5-(4-(1-methyl-1H-pyrazol-4-yl)phenyl)-1,2,6-thiadiazinane-3-carboxamide 1,1-dioxide]: the 50% effective concentration (EC50) was < 1 µM. For `[2H]C1[C@]([2H])(C(=O)Nc2ccc(F)c(Cl)c2)N(C)S(=O)(=O)N[C@]1([2H])c1ccc(Br)s1` (stereo in doubt) [HBV-CSU-371-ISO-II, Cis-5-(5-Bromothiophen-2-yl)-N-(3-chloro-4-fluorophenyl)-2-methyl-1,2,6-thiadiazinane-3,4,5-d3-3-carboxamide 1,1-dioxide] the value was 1 to 5 µM; for `CN1[C@H](C(=O)Nc2ccc(F)c(Cl)c2)C[C@H](c2ncc(-c3ccnn3C)s2)NS1(=O)=O` [HBV-CSU-281-ISO-I, Cis-N-(3-Chloro-4-fluorophenyl)-2-methyl-5-(5-(1-methyl-1H-pyrazol-5-yl)thiazol-2-yl)-1,2,6-thiadiazinane-3-carboxamide 1,1-dioxide], < 1 µM. With `CCn1cc(-c2ccc([C@@H]3C[C@H](C(=O)Nc4ccc(F)c(Cl)c4)N(C)S(=O)(=O)N3)s2)cn1` [HBV-CSU-291-ISO-II, Cis-N-(3-chloro-4-fluorophenyl)-5-(5-(1-ethyl-1H-pyrazol-4-yl)thiophen-2-yl)-2-methyl-1,2,6-thiadiazinane-3-carboxamide 1,1-dioxide], the concentration giving a half-maximal response (EC50) was > 5 µM. As for `Cc1cc(C2CC(C(=O)Nc3ccc(F)c(Cl)c3)N(C)S(=O)(=O)N2)sc1-c1cnn(C)c1` (racemic) [HBV-CSU-300, Cis-N-(3-Chloro-4-fluorophenyl)-5-(4-methyl-5-(1-methyl-1H-pyrazol-4-yl)thiophen-2-yl)-2-methyl-1,2,6-thiadiazinane-3-carboxamide 1,1-dioxide], the EC50 is < 1 µM. For the compound `CN1C(C(=O)Nc2ccc(F)c(Cl)c2)CC(c2ncc(-c3cnn(C)c3)s2)NS1(=O)=O` (racemic) [HBV-CSU-177, Cis-N-(3-Chloro-4-fluorophenyl)-2-methyl-5-(5-(1-methyl-1H-pyrazol-4-yl)thiazol-2-yl)-1,2,6-thiadiazinane-3-carboxamide 1,1-dioxide], the EC50 was < 1 µM.

Regarding `[2H]C1C([2H])(c2ccc(Br)s2)NS(=O)(=O)N(C)C1([2H])C(=O)Nc1ccc(F)c(Cl)c1` (stereo not drawn) [HBV-CSU-371, Cis-5-(5-Bromothiophen-2-yl)-N-(3-chloro-4-fluorophenyl)-2-methyl-1,2,6-thiadiazinane-3,4,5-d3-3-carboxamide 1,1-dioxide], the concentration giving a half-maximal response (EC50) is < 1 µM.

As to `CN1[C@@H](C(=O)Nc2ccc(F)c(Cl)c2)C[C@@H](c2ncc(-c3ccc(F)cc3)s2)NS1(=O)=O` [HBV-CSU-248-ISO-II, Cis-N-(3-Chloro-4-fluorophenyl)-5-(5-(4-fluorophenyl)thiazol-2-yl)-2-methyl-1,2,6-thiadiazinane-3-carboxamide 1,1-dioxide], the EC50 was > 5 µM. In the case of `O=C(Nc1ccc(F)c(Cl)c1)[C@H]1C[C@@H](c2nccs2)NS(=O)(=O)N1CCCN1CCCC1` [HBV-CSU-102-ISO-I, Cis-N-(3-Chloro-4-fluorophenyl)-2-(3-(pyrrolidin-1-yl)propyl)-5-(thiazol-2-yl)-1,2,6-thiadiazinane-3-carboxamide 1,1-dioxide], the 50% effective concentration (EC50) was > 5 µM. For `CN1[C@@H](C(=O)Nc2ccc(F)c(Cl)c2)C[C@@H](c2cc(Cc3ccccc3)cs2)NS1(=O)=O` [HBV-CSU-149-ISO-II, Cis-(4-benzylthiophen-2-yl)-N-(3-chloro-4-fluorophenyl)-2-methyl-1,2,6-thiadiazinane-3-carboxamide 1,1-dioxide] the value was 1 to 5 µM; for `Cc1nn(C)c(C)c1-c1csc([C@@H]2C[C@H](C(=O)Nc3ccc(F)c(Cl)c3)N(C)S(=O)(=O)N2)c1` (relative stereo) [HBV-CSU-317-ISO-II, Cis-N-(3-chloro-4-fluorophenyl)-2-methyl-5-(4-(1,3,5-trimethyl-1H-pyrazol-4-yl)thiophen-2-yl)-1,2,6-thiadiazinane-3-carboxamide 1,1-dioxide], < 1 µM; for `[2H]C1C([2H])(c2ccc(-c3cn(C)cn3)s2)NS(=O)(=O)N(C)C1([2H])C(=O)Nc1ccc(F)c(Cl)c1` (stereo not drawn) [HBV-CSU-375, Cis-N-(3-Chloro-4-fluorophenyl)-2-methyl-5-(5-(1-methyl-1H-imidazol-4-yl)thiophen-2-yl)-1,2,6-thiadiazinane-3,4,5-d3-3-carboxamide 1,1-dioxide], < 1 µM. In the case of `CN1[C@@H](C(=O)Nc2ccc(F)c(Cl)c2)C[C@@H](c2ncc(-c3cn(C)cn3)s2)NS1(=O)=O` [HBV-CSU-276-ISO-II, Cis-N-(3-Chloro-4-fluorophenyl)-2-methyl-5-(5-(1-methyl-1H-imidazol-4-yl)thiazol-2-yl)-1,2,6-thiadiazinane-3-carboxamide 1,1-dioxide], the EC50 is > 5 µM. For `COCCN1C(C(=O)Nc2ccc(F)c(Br)c2)CC(c2nccs2)NS1(=O)=O` (racemic) [HBV-CSU-059, Cis-N-(3-bromo-4-fluorophenyl)-2-(2-methoxyethyl)-5-(thiazol-2-yl)-1,2,6-thiadiazinane-3-carboxamide 1,1-dioxide] the value was < 1 µM. For `[2H]C([2H])([2H])N1[C@H](C(=O)Nc2ccc(F)c(Cl)c2)C[C@H](c2ccc(-c3cn(C)cn3)s2)NS1(=O)=O` [HBV-CSU-373-ISO-I, Cis-N-(3-Chloro-4-fluorophenyl)-2-(methyl-d3)-5-(5-(1-methyl-1H-imidazol-4-yl)thiophen-2-yl)-1,2,6-thiadiazinane-3-carboxamide 1,1-dioxide] the value was < 1 µM.

The values above are taken from patent US11078170B2 (Assembly Biosciences, Inc., priority 2017, dated 2021).
